From patent US4301140A, “Radiopharmaceutical method for monitoring kidneys” (G. D. Searle & Co., priority 1979, dated 1981)

Columns and labels:
[1] = cited from earlier work
[2] = Scintiscan (Anger camera) monitoring of distribution of radioactivity after intravenous administration, rabbit; type: in vivo, New Zealand rabbit; set-up: key: -: no significant measured radioactivity; relative amounts of measured radioactivity ranging from (-) for no significant measured radioactivity to (+++) for the maximum measured radioactivity; relative amounts of measured radioactivity ranging from (-) for no significant measured radioactivity to (+++) for the maximum measured radioactivity; +++: the maximum measured radioactivity; settings: i.v., 1.21 mg, 0.81 mCi
Method: Approximately 0.2 milliliter of a solution of the complex formed from technetium-99m and 0.95 milligram of fructose 1,6-diphosphate and prepared generally as described in Example 1 and having a radioactivity of 0.5 millicurie was administered intravenously to an anesthetized New Zealand rabbit weighing about 3 kilograms. Approximately the same volume of a solution of the complex formed from technetium-99m and 1.21 milligrams of fructose 6-phosphate prepared generally as described in Example 2, having a radioactivity of 0.81 millicurie was similarly administered to a second New Zealand rabbit of about the same weight. The injections were made using a 1 milliliter tuberculin syringe connected to a #23 gauge indwelling cannula inserted into a marginal ear vein. Each rabbit was positioned in a full ventral position for 2.5 to 3 hours during which time the disposition of the radioactivity in the rabbit in this position was monitored using a computer-augmented Anger camera. The measurements and results are discussed hereinafter, and the results of the test using the fructose 1,6-diphosphate and fructose 6-phosphate complexes are presented in Tables 1 and 2, respectively.
(§1) At various times after the aforesaid administrations of solutions of complexes of this invention, which times are indicated in Tables 1-6, scintiscan photographs and video tape recordings were taken of the aforesaid rabbit, beagles and monkeys using the Anger camera. This instrument was a Pho-Gamma LFOV Scintillation Camera System, Model 6413, fitted with a Model 3137 Vari-Back Camera, a Model 3122 Data-Store/Playback System and a Model 27851 Analog-Digital/Digital-AnalogConverter (all Searle Radiographics, Inc.). This entire system was interfaced with a Xerox 530 computer (Xerox Corp., Minneapolis, Minn.) which was programmed to record net counts per unit of time and percents of total counts in individual organs and to plot organ radioactivity versus time. The camera was operated with a 140 KeV high resolution Type II converging collimator using a 20 percent technetium-99m window. Generally 400,000 counts were accumulated on each scintiscan using both video tape and self-developing film, with the animal in the full ventral position. The photographs represented a visualization of the anatomic relationships in the kidneys.
(§2) Tables 1-6 contain semi-quantitative representations of the distribution of radioactivity in the organs of the test animals determined from the scintiscans. In Tables 1-6, (--), (+), (++) and (+++) indicate relative amounts of measured radioactivity ranging from (-) for no significant measured radioactivity to (+++) for the maximum measured radioactivity.

[3] = Scintiscan (Anger camera) monitoring of distribution of radioactivity after intravenous administration, female beagle dog; type: in vivo; set-up: key: -: no significant measured radioactivity; relative amounts of measured radioactivity ranging from (-) for no significant measured radioactivity to (+++) for the maximum measured radioactivity; relative amounts of measured radioactivity ranging from (-) for no significant measured radioactivity to (+++) for the maximum measured radioactivity; +++: the maximum measured radioactivity; settings: i.v., 7.3 mg, 0.84 mCi
Method: (§3) This procedure used with the rabbits was repeated with additional anesthetized animals: two female beagle dogs and two female rhesus monkeys. In these cases, however, unlike the cases of the rabbits, the complex solutions, again prepared generally as described in Examples 1 and 2, were injected intravenously in a saphenous vein of the dogs and monkeys.
Three milliliters of a solution of the complex formed from technetium-99m and 9.4 milligrams of fructose 1,6-diphosphate and having a radioactivity of 0.5 mCi were administered to one such dog weighing 11.7 kilograms. In addition, 1.6 milliliters of a solution of the complex formed from technetium-99m and 7.3 milligrams of fructose 6-phosphate having a radioactivity of 0.84 mCi were administered to a second such dog weighing 10.5 kilograms.
as §1, §2

[4] = Scintiscan (Anger camera) monitoring of distribution of radioactivity after intravenous administration, rhesus monkey; type: in vivo; set-up: key: -: no significant measured radioactivity; relative amounts of measured radioactivity ranging from (-) for no significant measured radioactivity to (+++) for the maximum measured radioactivity; relative amounts of measured radioactivity ranging from (-) for no significant measured radioactivity to (+++) for the maximum measured radioactivity; +++: the maximum measured radioactivity; settings: i.v., 7.6 mg, 0.79 mCi
Method: as §3
Similarly 0.3 milliliter of a solution of the complex formed from technetium-99m and 1.1 milligrams of fructose 1,6-diphosphate having a radioactivity of 1.2 mCi were administered to one such monkey weighing 5.1 kilograms. Also 1.5 milliliters of a solution of the complex formed from technetium-99m and 7.6 milligrams of fructose 6-phosphate having a radioactivity of 0.79 mCi were administered to a second such monkey weighing 6.7 kilograms.
as §1, §2

[5] = Appearance of radioactive complex in kidneys and urinary bladder calculated from video tape measurements (FIG. 1), male mongrel dog; type: in vivo; settings: i.v., 3-5 mg, 3.5 mCi, about 45 min
Source text: as §1
The appearance in the kidneys and urinary bladder of a male mongrel dog weighing 14.1 kilograms, of the radioactive complex formed from technetium-99m and 3-5 milligrams of fructose 6-phosphate administered intravenously as described above in a 0.5-1.0 milliliter solution prepared as in Example 2 and having a radioactivity of 3.5 mCi, was calculated from video tape measurements by the computer and is plotted in FIG. 1 as the percentage of total radioactivity administered in the form of the radioactive complex versus time after administration. At about 45 minutes after administration, about 60 percent of the total radioactivity administered was concentrated in the urinary bladder, with less than 7 percent of the total dose of the radioactive complex in the kidneys.

[6] = Plasma clearance after intravenous injection, dogs (gamma spectrometer); type: in vivo, dog (male mongrel and female beagle); settings: i.v., four tests
Method: In each case about 0.5-2 milliliters of a solution of the complex having radioactivity of about 1-4 mCi and formed from 0.5-10 milligrams of complexing agent were administered. […] The dogs ranged in weight from 6 to 15 kilograms. Periodically blood samples were removed from the jugular vein of the dogs and collected in vacuum tubes containing the disodium salt of ethylenediamine tetracetic acid and the radioactivity of one milliliter samples of plasma were measured in a gamma spectrometer.
The gamma spectrometer employed was a Model 1185 Gamma Scintillation Spectrometer (Searle Analytic Inc., Des Plaines, Ill.). One milliliter samples of plasma or whole blood were analyzed for technetium-99m, and samples were counted for 1 minute. As determined by the computer, the curve in FIG. 2 and the five other corresponding curves (not shown) from the other tests with the dogs were the best fitting curves passing through the plots of experimentally measured radioactivities.

Compound: O=C(O)CNC(=O)c1ccccc1[131I] [131I-o-iodohippurate]
- route of excretion ([1]; after intravenous injection): excreted through the kidneys exclusively
- clearance model ([1]; in vivo): appears to follow the two-compartment model

Compound: complex of technetium-99m and fructose 6-phosphate
- Relative distribution of complex: Kidneys ([2]; 1 min): ++
- Relative distribution of complex: Urinary Bladder ([2]; 1 min): +
- Relative distribution of complex: Vascular ([2]; 1 min): ++
- Relative distribution of complex: Kidneys ([2]; 30 min): ++
- Relative distribution of complex: Urinary Bladder ([2]; 30 min): ++
- Relative distribution of complex: Vascular ([2]; 30 min): +
- Relative distribution of complex: Kidneys ([2]; 60 min): ++
- Relative distribution of complex: Urinary Bladder ([2]; 60 min): +++
- Relative distribution of complex: Vascular ([2]; 60 min): +
- Relative distribution of complex: Kidneys ([2]; 120 min): +
- Relative distribution of complex: Urinary Bladder ([2]; 120 min): +++
- Relative distribution of complex: Vascular ([2]; 120 min): -
- Relative distribution of complex: Kidneys ([2]; 150 min): +
- Relative distribution of complex: Urinary Bladder ([2]; 150 min): +++
- Relative distribution of complex: Vascular ([2]; 150 min): -
- Relative distribution of complex: Kidneys ([3]; 1 min): ++
- Relative distribution of complex: Urinary Bladder ([3]; 1 min): -
- Relative distribution of complex: Vascular ([3]; 1 min): ++
- Relative distribution of complex: Kidneys ([3]; 6 min): ++
- Relative distribution of complex: Urinary Bladder ([3]; 6 min): +
- Relative distribution of complex: Vascular ([3]; 6 min): +
- Relative distribution of complex: Kidneys ([3]; 25 min): +
- Relative distribution of complex: Urinary Bladder ([3]; 25 min): ++
- Relative distribution of complex: Vascular ([3]; 25 min): +
- Relative distribution of complex: Kidneys ([3]; 30 min): +
- Relative distribution of complex: Urinary Bladder ([3]; 30 min): +++
- Relative distribution of complex: Vascular ([3]; 30 min): +
- Relative distribution of complex: Kidneys ([3]; 40 min): +
- Relative distribution of complex: Urinary Bladder ([3]; 40 min): +++
- Relative distribution of complex: Vascular ([3]; 40 min): -
- Relative distribution of complex: Kidneys ([3]; 50 min): +
- Relative distribution of complex: Urinary Bladder ([3]; 50 min): +++
- Relative distribution of complex: Vascular ([3]; 50 min): -
- Relative distribution of complex: Kidneys ([3]; 60 min): +
- Relative distribution of complex: Urinary Bladder ([3]; 60 min): +++
- Relative distribution of complex: Vascular ([3]; 60 min): -
- Relative distribution of complex: Kidneys ([3]; 70 min): +
- Relative distribution of complex: Urinary Bladder ([3]; 70 min): +++
- Relative distribution of complex: Vascular ([3]; 70 min): -
- Relative distribution of complex: Kidneys ([3]; 80 min): +
- Relative distribution of complex: Urinary Bladder ([3]; 80 min): +++
- Relative distribution of complex: Vascular ([3]; 80 min): -
- Relative distribution of complex: Kidneys ([3]; 90 min): +
- Relative distribution of complex: Urinary Bladder ([3]; 90 min): +++
- Relative distribution of complex: Vascular ([3]; 90 min): -
- Relative distribution of complex: Kidneys ([4]; 4 min): ++
- Relative distribution of complex: Urinary Bladder ([4]; 4 min): +++
- Relative distribution of complex: Vascular ([4]; 4 min): +
- Relative distribution of complex: Kidneys ([4]; 30 min): ++
- Relative distribution of complex: Urinary Bladder ([4]; 30 min): +++
- Relative distribution of complex: Vascular ([4]; 30 min): +
- Relative distribution of complex: Kidneys ([4]; 50 min): +
- Relative distribution of complex: Urinary Bladder ([4]; 50 min): +++
- Relative distribution of complex: Vascular ([4]; 50 min): -
- Relative distribution of complex: Kidneys ([4]; 65 min): +
- Relative distribution of complex: Urinary Bladder ([4]; 65 min): +++
- Relative distribution of complex: Vascular ([4]; 65 min): -
- percentage of total dose of the radioactive complex in the kidneys [5]: less than 7%
- percentage of total radioactivity administered concentrated in the urinary bladder [5]: about 60%
- radioactivity concentrated in any other organ [5]: No measurable radioactivity
- improved average half time, distributive phase ([6]; single obviously erroneous measurement eliminated, standard deviation 0.025 hour): 0.072 h
- improved average half time, elimination phase ([6]; single obviously erroneous measurement eliminated, standard deviation 0.72 hour): 1.68 h
- average half time, distributive phase ([6]; standard deviation 0.023 hour): 0.088 h
- average half time, elimination phase ([6]; standard deviation 3.29 hours): 3.98 h
